From US7314857B2, “Synergistic antimicrobial compositions and methods of inhibiting biofilm formation” (Kane Biotech Inc., priority 2003, dated 2008)

What was measured:
Assay in all cases: Growth on urinary catheter segments coated with TDMAC plus composition (roll plate)
Pseudomonas aeruginosa = assay type: cell-based
Protocol: (§1) Clear vinyl catheter segments (3 cm sections of tubing) that had been preheated (incubated in sterile water at 65° C. overnight) were coated in 5% TDMAC in ethanol for an hour at room temperature. The catheter segments were vigorously washed with sterile water and air-dried. The segments were then immersed in ethanol and coating solution (1000 μg OT+100 μg PS+100 μg EDTA/ml of water) for 2 hours at −20° C. In addition, a few catheter segments were immersed in coating solution alone for 2 hours at −20° C. All the segments were air dried and immersed in a tryptic soy broth culture of Pseudomonas aeruginosa, Klebsiella pneumoniae and Staphylococcus epidermidis for 3 hours at 37° C. The catheter segments were washed 3 times in 3 changes of sterile saline and rolled on tryptic soy agar plates. The plates were incubated overnight at 37° C. and the colonies were counted.

Klebsiella pneumoniae = assay type: cell-based
Protocol: as §1

Staph. epidermidis = assay type: cell-based, Staphylococcus epidermidis
Protocol: as §1

[1] = coated vinyl catheter segments vs uncoated control, coating at −20° C.
[2] = coated vinyl catheter segments, coating 2 hours at −20° C., 3 hours in culture at 37° C., CFU per millimeter of catheter tubing

CCCCCCCCCCCC[N+](C)(CCCCCCCCCCCC)CCCCCCCCCCCC.[Cl-] [TDMAC, Tridodecyl Methyl Ammonium Chloride]
% Inhibition (Pseudomonas aeruginosa; [1]): 12% | Viable Counts (CFU/mM) (Pseudomonas aeruginosa; [2]): 18.8 ± 4.6 CFU/mM | % Inhibition (Klebsiella pneumoniae; [1]): 0% | Viable Counts (CFU/mM) (Klebsiella pneumoniae; [2]): 4.3 ± 1.3 CFU/mM | % Inhibition (Staph. epidermidis; [1]): 0% | Viable Counts (CFU/mM) (Staph. epidermidis; [2]): 20.4 ± 7.7 CFU/mM
